Measured values published in PubChem BioAssay (NCI).
Values joined by “and” are separate entries in the source; they are usually repeats but may differ in a detail not shown here. Equal entries are not always repeated.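 These data come from cells grown in 96-well plates and exposed to compound for 48 hours at five concentrations. At the GI50, growth is halved. Definition used: TGI = concentration required for complete inhibition of growth.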

What was measured:
Assay in all cases: growth of human tumour cells (NCI), 48 h
[1] = system: BT-549 breast
[2] = system: HCT-15 colon
[3] = system: HOP-92 NSCLC
[4] = system: LOX IMVI melanoma
[5] = system: MDA-MB-435
[6] = system: SF-268 CNS
[7] = system: SN12C renal
[8] = system: SNB-19 CNS
[9] = system: TK-10 renal
[10] = system: UO-31 renal

SMILES	TGI [1]	TGI [2]	TGI [3]	TGI [4]	TGI [5]	TGI [6]	TGI [7]	TGI [8]	TGI [9]	TGI [10]	GI50 [1]	GI50 [2]	GI50 [3]	GI50 [4]	GI50 [5]	GI50 [6]	GI50 [7]	GI50 [8]	GI50 [9]	GI50 [10]
O=c1[nH]c(=S)[nH]c(-c2ccccc2)c1Cc1c(O)ccc2ccccc12	90.7 µM	> 100 µM	> 100 µM	> 100 µM	93 µM	> 100 µM	> 100 µM	> 100 µM	59.3 µM	80.9 µM										
Cc1ccc(Cl)cc1-n1c(C)nc2c(cnn2-c2ccnc3c(C(F)(F)F)cccc23)c1=O	> 100 µM	> 100 µM	> 100 µM	> 100 µM	> 100 µM	> 100 µM	> 100 µM	> 100 µM	> 100 µM	> 100 µM	> 100 µM	> 100 µM	> 100 µM	> 100 µM	> 100 µM	> 100 µM	> 100 µM	> 100 µM	> 100 µM	> 100 µM
COc1c(CC=C(C)C)c(O)c(C(CC(C)C)c2c(O)c(CC=C(C)C)c(O)c(C(C)=O)c2O)c(O)c1C(C)=O (stereo unspecified)	14.9 µM	2.62 µM	0.562 µM	3.59 µM	6.47 µM	8.12 µM	6.84 µM	15.2 µM	14.6 µM	11.1 µM										
CC(C)(C)c1cc(C(=O)O)c2c(c1)C(=O)OC2(c1ccccc1)c1ccccc1C(=O)O (stereo unspecified)	> 100 µM	> 100 µM	> 100 µM	> 100 µM	> 100 µM	> 100 µM	> 100 µM	> 100 µM	> 100 µM	> 100 µM	> 100 µM				> 100 µM					
Fc1ccc2nc(-c3nc(-c4ccccc4)n4ccccc34)[nH]c2c1	7.61 µM	27.7 µM	6.42 µM	20.2 µM	8.94 µM	9.96 µM	17.9 µM	6.22 µM	6.72 µM	5.15 µM	2.76 µM	4.29 µM	1.73 µM	4.86 µM	2.59 µM	3.29 µM	4.5 µM	2.37 µM	3.25 µM	1.75 µM
CN1CCCC1c1cccnc1.O=C(O)c1ccccc1O.O=C([O-])c1ccccc1[OH2+].O=C([O-])c1ccccc1[OH2+].[Mn+2] (stereo unspecified)	> 100 µM	> 100 µM	> 100 µM	> 100 µM	> 100 µM	> 100 µM	> 100 µM	> 100 µM	> 100 µM	> 100 µM	54.3 µM	> 100 µM	> 100 µM	> 100 µM	> 100 µM	31.6 µM	> 100 µM	> 100 µM	> 100 µM	> 100 µM
c1ccc(CN2COc3c(ccc4c5c(ccc34)CN(Cc3ccccc3)CO5)C2)cc1	> 100 µM	> 100 µM	> 100 µM	> 100 µM	> 100 µM	> 100 µM	> 100 µM	> 100 µM	> 100 µM	> 100 µM										
NCc1ccc(-c2nc(-c3ccc(Cl)c(O)c3)c(-c3ccncc3)[nH]2)cc1	> 25 µM	> 25 µM	19.6 µM	> 25 µM	> 25 µM	> 25 µM	> 25 µM	> 25 µM	> 25 µM	> 25 µM	> 25 µM	> 25 µM	2.1 µM	16.7 µM	5.18 µM	> 25 µM	> 25 µM	> 25 µM	> 25 µM	17.2 µM
COc1cc(/C=C/C(=O)O[C@H]2[C@H](O[C@@H]3O[C@@H](C)[C@H](O)[C@@H](O)[C@H]3O)[C@@H](O)[C@H](OCCc3ccc(O)c(O)c3)O[C@@H]2COC2OCC(O)(CO)C2O)ccc1O (stereo partly specified)	41.8 µM	> 100 µM	> 100 µM	53.6 µM	35.2 µM	> 100 µM	> 100 µM	> 100 µM	> 100 µM	> 100 µM	23.8 µM	> 100 µM	0.402 µM	21.6 µM	17.3 µM	49.3 µM	> 100 µM	> 100 µM	> 100 µM	> 100 µM
N#Cc1cc2c(cc1Cl)Sc1nnc(Nc3cccc4ccccc34)n1S2(=O)=O	28.9 µM	24.4 µM	30.1 µM	10.3 µM	16.4 µM	10.1 µM	6.73 µM	4.29 µM	5.07 µM	20.5 µM	14.6 µM	4.74 µM	14.7 µM	3.17 µM	4.35 µM	2.85 µM	2.51 µM	1.89 µM	1.91 µM	7.41 µM
Nc1nc(-c2ccc(Cl)cc2)nc2c1sc(=S)n2-c1ccccc1	> 100 µM	> 100 µM	6.25 µM	4.91 µM	> 100 µM	20.2 µM	48.1 µM	10.1 µM	5.9 µM	4.19 µM	6.5 µM	4.92 µM	2.37 µM	2.07 µM	6.65 µM	3.75 µM	6.34 µM	3.55 µM	2.22 µM	1.84 µM
CCn1ccnc1C(=O)/C=C/c1ccc(CC(=O)Nc2ccc(F)cc2)cc1	7.03 µM	8.96 µM	8.83 µM	2.83 µM	> 16.7 µM	> 16.7 µM	> 16.7 µM	> 16.7 µM	> 16.7 µM	10.5 µM	2.94 µM	1.93 µM	3.32 µM	0.561 µM	4.58 µM	3.81 µM	3.71 µM	3.58 µM	6.01 µM	2.65 µM
C/C(=N\NC(=S)N1CCN(c2ccccn2)CC1)c1ncccn1	18.8 µM	5.48 µM and 16.7 µM	5.91 µM and 3.08 µM	9.45 µM and 2.53 µM	11.9 µM	1.47 µM and 14.6 µM	18.1 µM	19 µM	18.5 µM	4.58 µM and 13.7 µM	0.0936 µM	0.013 µM	0.208 µM	< 0.0183 µM	0.414 µM	0.791 µM	0.0709 µM		1.71 µM	0.535 µM
